According to patent US20210401863A1, “TREATMENT AND PREVENTION OF NEISSERIA GONORRHOEAE INFECTION USING CMP-ACTIVATED NONULOSONATE ANALOG COMPOUNDS” (NATIONAL RESEARCH COUNCIL OF CANADA, priority 2015, published 2021):
“Also recorded” adds a separate entry of the source.

Tests used:
[1] = tested on: purified human FH; assay: Factor H (FH) binding to gonococci by flow cytometry; type: cell-based; conditions: F62 ΔlgtD grown with 20 μg/mL CMP-NulO, human FH 20 μg/mL
Method: FIG. 1: CMP-KDN serves as a substrate for gonococcal LOS and incorporation of KDN on gonococcal lacto-N-neotetraose LOS enhances factor H (FH) binding. A. Incorporation of KDN by gonococci. Gonococcal strain F62 ΔlgtD (expresses lacto-N-neotetraose (LNnT) from Hepl) was grown in media containing CMP-KDN (20 μg/mL) and binding of mAb 3F11 was measured by flow cytometry. mAb 3F11 binds only to […] LNnT; substitution of the terminal Gal of LNnT, for example with a NulO, will decrease mAb 3F11 binding. Approximately 5×10^7 bacteria were incubated with mAb 3F11 tissue culture supernatants for 15 minutes at 37° C. Binding of mAb 3F11 was disclosed with anti-mouse IgM FITC (Sigma; dilution of 1:100). Bacteria grown in CMP-Neu5Ac or in media alone were used as positive and negative controls for sialylation, respectively. A representative histogram is shown in the upper panel. […] B. Factor H (FH) binding to gonococci grown in CMP-KDN. Approximately 5×10^7 bacteria grown in media alone (no sialic acid), media plus CMP-Neu5Ac (20 μg/mL; positive control for FH binding) or in media containing CMP-KDN (20 μg/mL) were incubated with purified human FH (20 μg/mL) in HBSS** for 15 minutes at 37° C. and bound FH was detected with affinity isolated goat anti-human FH followed by anti-goat IgG FITC (Sigma; 1:100 dilution). A representative histogram is shown in the upper panel. […]

[2] = tested on: N. gonorrhoeae H041; assay: BALB/c mouse vaginal colonization model; type: in vivo; conditions: 10 μg intravaginally daily; Premarin treated BALB/c mice
Method: FIG. 2: Female BALB/c mice 5-6 weeks of age (Jackson Laboratories) in the diestrus phase of the estrous cycle were started on treatment (that day) with 0.5 mg of Premarin (Pfizer) given subcutaneously on each of three days; −2, 0 and +2 days (before, the day of and after inoculation) to prolong the estrus phase of the cycle and promote susceptibility to N. gonorrhoeae infection. Antibiotics (vancomycin, colistin, neomycin, trimethoprim and streptomycin) that were ineffective against N. gonorrhoeae were also used to reduce competitive microflora. Mice (n=40) were then infected with 10^6 CFU of strain H041. Three groups of mice (n=10/group) were treated with 10 μg intravaginally daily (first dose was administered 30 minutes before the introduction of bacteria) with one of the following CMP-NulOs in normal saline: CMP-Leg5Ac7Ac, CMP-Neu5Ac9Az or CMP-KDN. A fourth group (n=10) was given saline (vehicle control). Vaginal swabs were obtained daily from each animal, serially diluted and plated on chocolate agar containing vancomycin, colistin, neomycin, trimethoprim and streptomycin (VCNTS) to quantify bacterial loads. A. Median time to clearance was estimated using Kaplan-Meier survival curves; the times to clearance were compared between groups using a log-rank test. P<0.0001 for the control versus each of the treatment groups. Time to clearance between each of the treatment groups was similar (P>0.05). B. The mean area under the curve (log10 CFU vs. time) was computed for each mouse to estimate the bacterial burden over time (cumulative infection); the means under the curves were compared between groups using the Kruskal-Wallis nonparametric rank sum test because distributions were skewed or kurtotic. Groups were compared using Dunn's multiple comparison test. ****, P<0.0001; **, P<0.01; *, P<0.05. The differences among the groups that received CMP-NulOs were not significant.
The mouse model experiments and statistical analysis were conducted as described in the art and in U.S. Pat. No. 9,765,106. […]

Nc1ccn([C@@H]2O[C@H](COP(=O)(O)O[C@@]3(C(=O)O)CC(O)[C@@H](O)C([C@H](O)[C@H](O)CO)O3)C(O)C2O)c(=O)n1 (stereo partly drawn) [CMP-KDN, cytidine 5′-monophospho-3-deoxy-D-glycero-D-galacto-nonulosonic acid]
fH binding to bacteria [1]: half of that observed for Neu5Ac | attenuation of N. gonorrhoeae H041 infection [2]: some efficacy; also recorded: significantly attenuated; also recorded: just as efficacious in an animal model of colonization
